Experimental data published in US8283373B2, “Inhibitors of cytosolic phospholipase A2” (Pfizer Inc., priority 2005, dated 2012).

Key:
cPLA2α = target: T1, cPLA2α (Homo sapiens, UniProt P47712); test: GLU Micelle Assay; format: biochemical
T1 sequence (P47712 1-749): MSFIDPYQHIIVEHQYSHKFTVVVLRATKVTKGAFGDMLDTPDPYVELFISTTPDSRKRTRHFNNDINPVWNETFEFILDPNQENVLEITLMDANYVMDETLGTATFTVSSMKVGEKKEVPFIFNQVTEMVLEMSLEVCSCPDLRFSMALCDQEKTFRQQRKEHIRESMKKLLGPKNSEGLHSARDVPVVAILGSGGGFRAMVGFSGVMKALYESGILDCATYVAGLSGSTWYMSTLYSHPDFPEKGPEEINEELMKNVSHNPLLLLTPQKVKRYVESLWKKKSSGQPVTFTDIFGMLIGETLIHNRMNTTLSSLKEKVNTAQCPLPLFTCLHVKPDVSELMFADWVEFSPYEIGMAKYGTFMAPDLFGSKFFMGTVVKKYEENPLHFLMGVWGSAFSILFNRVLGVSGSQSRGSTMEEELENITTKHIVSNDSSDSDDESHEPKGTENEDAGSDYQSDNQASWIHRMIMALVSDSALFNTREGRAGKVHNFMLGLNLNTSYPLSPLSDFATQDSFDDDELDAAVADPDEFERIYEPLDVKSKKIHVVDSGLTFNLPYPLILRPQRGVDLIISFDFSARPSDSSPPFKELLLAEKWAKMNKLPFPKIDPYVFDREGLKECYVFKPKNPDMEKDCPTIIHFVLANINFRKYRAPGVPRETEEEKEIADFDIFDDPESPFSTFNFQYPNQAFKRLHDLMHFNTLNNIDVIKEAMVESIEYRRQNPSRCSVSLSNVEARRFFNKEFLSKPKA
Procedure: The assay was carried in a 96-well format using a fluorescent plate reader with a 355 nm excitation filter and a 460 nm emission filter (Lab Systems Fluoroscan II, Helsinki, Finland). The assay buffer contained 940 μM Triton X-100, 50 mM Hepes pH 7.4, 0.3 mM EDTA, 1 mM CaCl2 and 300 mM KCl. DTPC (1,2-O-tetradecyl-sn-glycero-3-phosphocholine, Avanti) at a final concentration of 120 μM was added the day of the experiment and GLU (7-Hydroxycoumarinyl-γ-linolenate, Biomol Research Lab, Inc.) at a final concentration of 90 μM was added immediately prior to each assay.
Compounds (10 μL) dissolved in DMSO were placed in duplicate wells of a black 96-well plate. Wells corresponding to the positive and negative controls contained DMSO without inhibitors. Just prior to the experiment, 200 μL assay buffer containing 90 μM GLU and 120 μM DTPC was added to all wells in the assay plate. Assay buffer (50 μL) was added to the negative, and 50 μL cPLA2α solution ([…] in assay buffer) was added to all other wells to initiate the reaction. The final concentration of enzyme was 1 μg/ml. The content of each well was mixed gently during the addition of the enzyme, and the plate was rapidly transferred to the fluorescent plate reader. The increase in fluorescence was read every 4 min for 84 min. The slope of the resulting line was determined and the inhibition was calculated using the equation below: Percent Inhibition=[1−(slope with inhibitor−slope negative control)/(slope positive control−slope negative control)]×100 Rat Whole Blood Assay

TXB2 = test: Rat Whole Blood Assay (A23187-stimulated TXB2); format: cell-based; settings: Rattus norvegicus; A23187 5 μM
Procedure: Fresh blood was collected in heparinized tubes by cardiac puncture of male Sprague-Dawley rats. Aliquots of blood (0.6 mL) were incubated with either 6 μL solvent (DMSO), or 6 μL of test compounds at various concentrations for 15 minutes at 37° C. This was followed by incubation of the blood with 6 μL of calcium ionophore, A23187 (Sigma C-7522) diluted in DMSO for 10 min at 37° C. The final concentration of A23187 was 5 μM. DMSO (6 μL) was added in the unstimulated controls. The reactions were stopped by mixing 60 μL cold EDTA to give a final concentration of 20 mM. The blood was centrifuged at 6,500 rpm for 10 min on a microcentrifuge to obtain plasma. A 70 μL aliquot of plasma was mixed with 400 μL cold methanol for protein precipitation. After incubation at −80° C. for 30 min, the supernatant was obtained by centrifuging at 6,500 rpm for 10 min, and was assayed for TXB2 according to the manufacturer's procedure (Assay Designs, Inc.'s ELISA kit #900-002).

[1] = test system: primary cerebellar granule neurons; test: Oxygen-glucose deprivation (OGD) in cultured cerebellar granule neurons; format: cell-based, rat; settings: for percent cell death (lactate dehydrogenase release), Avg.: OGD 2 hours, control 14, OGD 51
Procedure: Primary cerebellar granule neurons were isolated from P5-8 rat pups. Briefly, cerebelli were collected and pooled in ice-cold phosphate buffer saline (PBS) without Ca^2+ and Mg^2+. The tissue was finely chopped and transferred to an enzymatic dissociation media containing 20 IU/ml papain in Earle's balanced salt solution (Worthington Biochemical, Freehold, N.J.) and incubated for 30 minutes at 37° C. After enzymatic dissociation, the papain solution was aspirated and the tissue mechanically triturated with a fire-polished Pasteur pipette in complete media [Neurobasal Medium with B-27 supplement (Gibco, Grand Island, N.Y.), penicillin/streptomycin, aphidicolin, glutamate, potassium chloride] containing 2,000 IU/ml DNase and 10 mg/ml ovomucoid protease inhibitor. Single-cell suspensions in complete media were plated on pre-coated poly-L-ornithine/laminin 24-well plates (Becton-Dickinson, Bedford, Mass.) at a density of
5.0×10^5 cells/well. Cells were maintained for two weeks prior to experimentation.
Cultures were treated with Compound A at various concentrations, 60 minutes before OGD. Media was removed and replaced with deoxygenated buffer in an anaerobic chamber (80% nitrogen, 10% hydrogen, 10% carbon dioxide gas mixture). Fresh Compound A, Example 34 or Example 41 was added to the cultures and maintained in the anaerobic chamber for 2 hours. At the end of the incubation, fresh media was exchanged and fresh Compound A was added. Cultures were maintained for an additional 24 hours in a normoxic incubator. Cell death was determined by measuring lactate dehydrogenase release into the media 24 hours later (Roche Biochemicals). In the table below, values are shown for the control, OGD, various concentrations of Compound A, and MK801, a NMDA receptor antagonist, which is a positive control.

- IC50 (cPLA2α): 16 nM
- IC50 (TXB2): 30 nM
Structure (SMILES): O=C(O)c1ccc(CCCc2c(CCNS(=O)(=O)Cc3ccccc3-c3cccc4cccnc34)n(C(c3ccccc3)c3ccccc3)c3ccc(Cl)cc23)cc1 [Example 34, 4-{3-[5-chloro-1-(diphenylmethyl)-2-(2-{[(2-quinolin-8-ylbenzyl)sulfonyl]amino}ethyl)-1H-indol-3-yl]propyl}benzoic acid]
- protection of cultured neurons from OGD-induced cell death [1]: effective in protecting cultured neurons from OGD-induced cell death
- percent cell death (lactate dehydrogenase release), Avg. ([1]; 0.1 μM): 35%
- percent cell death (lactate dehydrogenase release), Avg. ([1]; 0.3 μM): 28%
- percent cell death (lactate dehydrogenase release), Avg. ([1]; 1 μM): 21%
- percent cell death (lactate dehydrogenase release), Avg. ([1]; 3 μM): 18%
